Test systems include SK-MEL-5; UO-31; NCI/ADR-RES; MDA-MB-231; SF-268; LOX IMVI; OVCAR-5; NCI-H460; MCF7; PC-3; SW-620; A549; RPMI-8226; HCT-15; K562; A498; IGROV-1; RXF 393; SK-MEL-2.
Holding throughout (assay): NCI tumour cell line growth inhibition, 48 h

The text below walks through data of ChEMBL document CHEMBL1201862, “PubChem BioAssay data set” (2004).

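Results reflect a 48-hour exposure of cells in 96-well plates to compound at five concentrations. GI50 is the concentration that inhibits growth by half.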 The source made the active and inactive calls. Cut-off read from the data, not from the text of the source: active = GI50 up to about 1.1 µM and inactive = higher.

On to `COc1ccc(CC(N)c2ccc(OC)cc2)cc1` (stereo not given), for which the GI50 with SK-MEL-5 was 43.4 µM (inactive); in the assay on UO-31 it was 90.6 µM (inactive); with NCI/ADR-RES it was > 100 µM (inactive); in the assay with MDA-MB-231, 84.9 µM (inactive); with SF-268, > 100 µM (inactive); in the assay with LOX IMVI, 57.5 µM (inactive). Further, the GI50 in the assay with OVCAR-5 is > 100 µM (inactive); with NCI-H460, 39.9 µM (inactive); in the assay on MCF7, 44.5 µM (inactive); with PC-3 it was 42.8 µM (inactive); with SW-620 it was > 100 µM (inactive); in the assay on A549, > 100 µM (inactive). The GI50 was 28.1 µM (inactive) with RPMI-8226; over 100 µM with HCT-15; 33.1 µM (inactive) in the assay with K562; > 100 µM (inactive) with A498; 66.7 µM (inactive) in the assay with IGROV-1; 72.1 µM (inactive) with RXF 393.

For the compound `COc1ccc(N2C(=O)C3ON(C(C(N)=O)c4ccccc4)C(c4ccc(-c5ccccc5)cc4)C3C2=O)cc1` (stereo not given), the GI50 with UO-31 is > 50 µM (inactive); in the assay on NCI/ADR-RES, > 50 µM (inactive); in the assay on MDA-MB-231, > 50 µM (inactive); with SF-268, > 50 µM (inactive); with LOX IMVI, 36.5 µM (inactive); with OVCAR-5, > 50 µM (inactive). Also, the GI50 in the assay on NCI-H460 is > 50 µM (inactive); with MCF7 it was 31.3 µM (inactive); in the assay with PC-3, > 50 µM (inactive); with SK-MEL-2, > 50 µM (inactive); with SW-620 it was > 50 µM (inactive); in the assay with A549, > 50 µM (inactive). Besides, the GI50 in the assay with RPMI-8226 is 16.8 µM (inactive); in the assay with HCT-15, over 50 µM; in the assay with K562 it was > 50 µM (inactive); in the assay with A498 it was > 50 µM (inactive); in the assay on IGROV-1 it was 48.8 µM (inactive); in the assay on RXF 393, > 50 µM (inactive).

Turning to `CCOC(=O)C(C)c1nc2cc(N3CCN(C)CC3)c(F)cc2[nH]c1=O` (stereo not given), the GI50 in the assay on SK-MEL-5, in the assay on UO-31, in the assay with NCI/ADR-RES, in the assay on MDA-MB-231, in the assay with SF-268 and in the assay on OVCAR-5 was > 100 µM (inactive) in each case. Also, the GI50 in the assay on NCI-H460, with MCF7, with PC-3, in the assay on SK-MEL-2, with SW-620 and with A549 was > 100 µM (inactive) throughout. The GI50 with RPMI-8226 was > 100 µM (inactive); with HCT-15 it was over 100 µM; with K562, > 100 µM (inactive); in the assay on A498, > 100 µM (inactive); in the assay with IGROV-1, > 100 µM (inactive); in the assay on RXF 393 it was > 100 µM (inactive).

With `CC1OC(OC2C(O)COC(OC3C(C)OC(OC4C(OC(=O)[C@]56CCC(C)(C)C[C@@H]5C5=CCC7[C@@]8(C)C[C@H](O)[C@H](OC9OC(CO)C(O)C(O)C9O)[C@@](C)(CO)[C@@H]8CC[C@@]7(C)[C@]5(C)CC6)OCC(O)C4O)C(O)C3O)C2O)C(O)C(O)C1O` (stereo not given in full), the GI50 in the assay on SK-MEL-5 was 20.4 µM (inactive); in the assay on UO-31, 12.9 µM (inactive); in the assay on NCI/ADR-RES it was 21.6 µM (inactive); with MDA-MB-231 it was 19.8 µM (inactive); in the assay with SF-268, 27.7 µM (inactive); with LOX IMVI, 21.3 µM (inactive). The GI50 was 17.1 µM (inactive) with OVCAR-5; 20.5 µM (inactive) in the assay with NCI-H460; 30.9 µM (inactive) in the assay with MCF7; 18.2 µM (inactive) in the assay on PC-3; 20.1 µM (inactive) in the assay on SW-620; 20.8 µM (inactive) with A549. The GI50 in the assay with RPMI-8226 is 33.2 µM (inactive); with HCT-15 it was 20.9 µM; with K562 it was 47.9 µM (inactive); in the assay on A498 it was 19.5 µM (inactive); with RXF 393, 15.6 µM (inactive).

Turning to `N#Cc1sc2c(c1OC(=O)c1ccco1)c(=O)n(-c1ccccc1)c(=S)n2-c1ccccc1`, the GI50 is 17.6 µM (inactive) with SK-MEL-5; 16 µM (inactive) with UO-31; 26.6 µM (inactive) in the assay on NCI/ADR-RES; 26.5 µM (inactive) in the assay on MDA-MB-231; 32.4 µM (inactive) in the assay on SF-268; 16.2 µM (inactive) in the assay with LOX IMVI. The GI50 is 32 µM (inactive) in the assay with NCI-H460; 31.2 µM (inactive) with MCF7; 18.5 µM (inactive) with PC-3; 28.8 µM (inactive) in the assay on SK-MEL-2; 17.7 µM (inactive) in the assay on SW-620; 35.9 µM (inactive) in the assay on A549. Moreover, the GI50 is 22.4 µM (inactive) in the assay with RPMI-8226; 20 µM in the assay with HCT-15; 15 µM (inactive) in the assay on K562; > 10 µM (inactive) in the assay with IGROV-1; 23.3 µM (inactive) in the assay with RXF 393.

As to `NCCNC(=O)CN(CC(=O)O)C1CCCCC1N(CC(=O)O)CC(=O)O` (stereo not given), the GI50 is > 100 µM (inactive) with SK-MEL-5; > 100 µM (inactive) in the assay on UO-31; > 100 µM (inactive) in the assay with NCI/ADR-RES; > 100 µM (inactive) in the assay on MDA-MB-231; 24.4 µM (inactive) in the assay with SF-268; > 100 µM (inactive) with LOX IMVI. The GI50 with OVCAR-5, in the assay with NCI-H460, in the assay with MCF7, with PC-3, in the assay on SK-MEL-2 and with SW-620 was > 100 µM (inactive) in each case. Further, the GI50 was > 100 µM (inactive) with A549; > 10 µM (inactive) with RPMI-8226; over 100 µM with HCT-15; > 100 µM (inactive) with K562; > 100 µM (inactive) in the assay with A498; > 100 µM (inactive) in the assay on IGROV-1.

Turning to `COc1cc2oc(=O)ccc2cc1C(=O)CC(C)C`, the GI50 in the assay on SK-MEL-5 is > 100 µM (inactive); with UO-31, > 100 µM (inactive); with NCI/ADR-RES it was 66.4 µM (inactive); in the assay with MDA-MB-231, > 100 µM (inactive); with SF-268, 99.3 µM (inactive); in the assay with LOX IMVI, > 100 µM (inactive). Also, the GI50 in the assay on OVCAR-5 was > 100 µM (inactive); in the assay with NCI-H460, 62.5 µM (inactive); with MCF7, 73.8 µM (inactive); with PC-3, > 100 µM (inactive); in the assay on SK-MEL-2 it was > 100 µM (inactive); in the assay with SW-620, > 100 µM (inactive). Moreover, the GI50 in the assay with A549 was > 100 µM (inactive); in the assay with RPMI-8226 it was > 100 µM (inactive); with HCT-15, over 100 µM; with K562, > 100 µM (inactive); with A498, > 100 µM (inactive); in the assay with IGROV-1, > 100 µM (inactive).

Regarding `[N-]=[N+]=Nc1cc(=O)n2c3c(cccc13)CCC2`, the GI50 in the assay with UO-31, in the assay on NCI/ADR-RES, in the assay with MDA-MB-231, in the assay on SF-268, in the assay with LOX IMVI and with NCI-H460 was > 100 µM (inactive) throughout. The GI50 is > 100 µM (inactive) with MCF7; > 100 µM (inactive) in the assay on PC-3; > 100 µM (inactive) in the assay on SW-620; > 100 µM (inactive) in the assay with A549; > 100 µM (inactive) with RPMI-8226; over 100 µM in the assay with HCT-15. Also, the GI50 in the assay with K562, in the assay with A498, with IGROV-1 and in the assay with RXF 393 was > 100 µM (inactive) each time.
